Data: patent publication US20060252780A1, “Fused pyrimidine derivatives” (Kyowa Hakko Kogyo Co., Ltd., priority 2003, published 2006)
Counter-ions that a name gives are not always drawn.

What follows are compounds tested on Pancreatic β cell line MIN6 cells (assay: Insulin secretion stimulating activity in cultured β cells (MIN6), insulin in the supernatant by enzyme immunoassay or radioimmunoassay). Settings: drug concentration 1.0 μmol/L, 14.5 mmol/L glucose, 45 min after stimulation, average of 3 to 4 tests, None (no drug) 148.4.
Assay type: cell-based
Description: Insulin Secretion Stimulating Activity in Cultured β Cells
Pancreatic β cell line MIN6 cells reported by Miyazaki, et al. [see Endocrinology, (1990) 127, p. […] 1139-1145]. In MIN6 cells, insulin secretion increase responding to a sulfonylurea agents, such as Glybenclamide, which are used as a therapeutic agent for diabetes (Cellular Signaling, (1993) 5, p. 777-786). Therefore, the above-mentioned culture of MIN6 cells and an insulin secretion test using the MIN6 cells were performed according to the method described in Diabetologia, (1993) 36, p. 1139-1145.
The effects of a compound on an insulin secretion activity under the presence of 14.5 mmol/L glucose was determined by measuring insulin amount in cell-culture supernatant collected as follows:
MIN6 cells cultured in a 24-well plate were washed twice with 1 mL of buffer solution A (pH 7.3) containing 2 mmol/L glucose. Buffer solution A consists of 119 mmol/L sodium chloride, 4.74 mmol/L potassium chloride, 2.54 mmol/L calcium chloride, 1.19 mmol/L magnesium sulfate, 1.19 mmol/L potassium dihydrogen phosphate, 10 mmol/L 2-[4-(2-hyroxyethyl)-1-piperazinyl]ethane sulfonic acid and 0.1% bovine serum albumin. Then, the cells were incubated in 1 mL of buffer solution A containing 2 mmol/L glucose at 37° C. for 45 minutes. After the incubation, the culture supernatant was exchanged with 0.9 mL of buffer solution A containing each test compound at various concentrations and 2 mmol/L glucose. The cells were further incubated at 37° C. for 15 minutes. Then, the MIN6 cells were stimulated with glucose by adding 0.1 mL of buffer solution A containing 127 mmol/L glucose (a final glucose concentration: 14.5 mmol/L). After the stimulation, the cells were further incubated at 37° C. for 45 minutes, and the supernatant was collected.
Antibody reactive insulin secreted in the culture supernatant was diluted with a phosphate buffer solution containing 1% bovine serum albumin, 0.1% Tween 20, 0.12% ethylenediaminetetraacetic acid (EDTA) disodium salt and 0.1% sodium azide, and then quantitatively measured by enzyme immunoassay or radioimmunoassay. The insulin levels were indicated as the amount of human insulin (ng/mLY. The results are indicated by averages (avg) and standard errors (se) of 3 to 4 tests.

Structure (SMILES)	Insulin secretion content (ng/mL) ave [ng/mL]
CCCN1C(=O)N2C[C@@H](Cc3ccccc3)N=C2c2cc(-c3ccccc3)[nH]c21 [Compound 1, (R)-2-Benzyl-2,3-dihydro-8-phenyl-6-propyl-7H-imidazo[1,2-c]pyrrolo[3,2-e]pyrimidin-5(6H)-one]	204.3
CCCN1C(=O)N2C[C@@H](Cc3ccccc3)N=C2c2nn(C3CCCC3)cc21 [Compound 10, (R)-8-Benzyl-2-cyclopentyl-7,8-dihydro-4-propyl-2H-imidazo[1,2-c]pyrazolo[3,4-e]pyrimidin-5(4H)-one hydrochloride]	184.7
CCCN1C(=O)N2C[C@@H](Cc3ccccc3)N=C2c2cn(C3CCCC3)nc21 [Compound 7, (R)-2-Benzyl-8-cyclopentyl-2,3-dihydro-6-propyl-8H-imidazo[1,2-c]pyrazolo[4,3-e]pyrimidin-5(6H)-one hydrochloride]	224.8
CCCN1C(=O)N2CC(Cc3ccc(Cl)cc3)N=C2c2cn(-c3ccccc3)nc21 (stereo not shown) [Compound 5, 2-(4-Chlorobenzyl)-2,3-dihydro-8-phenyl-6-propyl-8H-imidazo[1,2-c]pyrazolo[4,3-e]pyrimidin-5(6H)-one]	190.9
CCCN1C(=O)N2C[C@@H](Cc3ccccc3)N=C2c2cn(-c3ccccc3)nc21 [Compound 3, (R)-2-Benzyl-2,3-dihydro-8-phenyl-6-propyl-8H-imidazo[1,2-c]pyrazolo[4,3-e]pyrimidin-5(6H)-one]	213.2
CCCN1C(=O)N2C[C@@H](Cc3ccncc3)N=C2c2cn(C3CCCC3)nc21 [Compound 8, (R)-8-Cyclopentyl-2,3-dihydro-6-propyl-2-(4-picolyl)-8H-imidazo[1,2-c]pyrazolo[4,3-e]pyrimidin-5(6H)-one]	183.9
CCCN1C(=O)N2C[C@@H](Cc3ccccc3)N=C2c2[nH]c(-c3ccccc3)cc21 [Compound 2, (R)-8-Benzyl-7,8-dihydro-2-phenyl-4-propyl-1H-imidazo[1,2-c]pyrrolo[2,3-e]pyrimidin-5(4H)-one]	187.1
CCCN1C(=O)N2CC(Cc3ccc(F)cc3)N=C2c2cn(-c3ccccc3)nc21 (stereo not shown) [Compound 4, 2-(4-Fluorobenzyl)-2,3-dihydro-8-phenyl-6-propyl-8H-imidazo[1,2-c]pyrazolo[4,3-e]pyrimidin-5(6H)-one]	212.1
CCCN1C(=O)N2C[C@@H](Cc3ccccc3)N=C2c2nn(-c3ccccc3)cc21 [Compound 9, (R)-8-Benzyl-7,8-dihydro-2-phenyl-4-propyl-2H-imidazo[1,2-c]pyrazolo[3,4-e]pyrimidin-5(4H)-one]	174.3
CCCN1C(=O)N2CC(Cc3ccncc3)N=C2c2cn(-c3ccccc3)nc21 (stereo not shown) [Compound 6, 2,3-Dihydro-8-phenyl-6-propyl-2-(4-picolyl)-8H-imidazo[1,2-c]pyrazolo[4,3-e]pyrimidin-5(6H)-one]	172.5
